This is an account of results in patent publication US11851670B2, “Nucleic acid constructs encoding reprogramming factors linked by self-cleaving peptides” (Whitehead Institute for Biomedical Research, priority 2008, dated 2023).

One assay has as its system mouse fibroblasts. Conditions: treatment decreasing global DNA methylation; cited from earlier work.
A further assay deals with NGFP3 secondary MEFs. The experiment in a line: Effect of drugs on dox-induced reprogramming of secondary MEFs (GFP+ colony count). It is filed as cell-based, mouse. To be noted: dox plus 1 μM compound for two 48 h periods. The source says: We also tested whether the secondary cells could be used to assess the effect of drugs on the efficiency of reprogramming. For this we explored the effects of the DNA demethylating compound 5-Aza-deoxycytidine (5-Aza) and the histone deacetylase inhibitor trichostatin A (TSA). Because of their action on chromatin modifications both small molecules are candidates to improve the 5reprogramming efficiency.
For MEF isolation, chimeric embryos were isolated at E13.5 and the head and internal (including reproductive) organs were removed. Remaining tissue was physically dissociated and incubated in trypsin at 37° C. for 20 minutes, after which cells were resuspended in MEF media containing puromycin (2 μg/mL) and expanded for two passages prior to freezing. Secondary MEFs used for the described experiments were thawed and experiments plated 1-2 passages after thawing. Kinetic experiments (FIG. 2) were performed by plating 4×10^4 secondary MEFs per well in 6 well plates and plates were stained or analyzed at the indicated times. Cell density experiments were performed in 12 well plates and GFP+ iPS colonies were scored 4 weeks after dox induction. Single cell efficiency experiments were performed by plating single secondary MEFs onto a layer of wildtype feeder MEFS in 96 well plates prior to dox induction (using limiting dilutions, which were confirmed by eye in replicate plates lacking feeder MEFs). iPS formation was scored 4 weeks later. Representative experiments from 2-3 biological replicates are shown. For 5-Aza and TSA experiments, […] secondary MEFs were plated in 6 well plates (approx 100 cells/mm^2) and pretreated with ES cell media containing 5-Aza (1 μM) or TSA (1 μM) for 48 h. After 48 h, secondary MEFs were cultured in ES cell media plus dox lacking 5-Aza or TSA. MEFS were exposed to 5-Aza or TSA for a second 48 h period between days 8-10 after induction, followed by culture with dox only until scoring GFP+ colonies on day 21.

The subject of a further assay is huES cells. Conditions: cited from earlier work.
The subject of another assay is ES cells. Conditions: chemically defined medium, absence of LIF; cited from earlier work.
The test system of a further assay is SOX2-ER fusion construct. The experiment in a line: Tamoxifen-dependent activation of SOX2-ER fusion construct in transduced fibroblasts. The format is cell-based, human. Conditions: cells transduced with SOX2-ER fusion construct. From the text:
(a) DOX inducible lentivirus vectors: Following the same strategy as used for murine genes we have generated lentiviral vectors that transduce the human OCT4, SOX2, KLF4 and C-MYC c-DNAs either constitutively or under the control of a DOX inducible promoter [Brambrink, 2008 #6877]. To generate a DOX inducible system we infected human fibroblasts with a lentiviral vector carrying the rtTA transactivator. […] (b) Tamoxifen inducible lentivirus vectors: To enable independent inducible control of vectors we also generated OCT4, SOX2 and C-MYC estrogen receptor (ER) fusion constructs by fusing the factors to the estrogen ligand binding domain to allow for tamoxifen dependent expression [Grandori, 1996 #6505].

For the compound `Nc1ncn([C@H]2C[C@H](O)[C@@H](CO)O2)c(=O)n1` [5-Aza, 5-Aza-deoxycytidine], in the assay on mouse fibroblasts, the “reprogramming of mouse fibroblasts” value is recorded as “enhance reprogramming of mouse fibroblasts”. The “reprogramming efficiency (number of GFP+ colonies)” value is given as “increased the reprogramming efficiency” in the assay with NGFP3 secondary MEFs (GFP+ colonies scored on day 21) and “substantially enhances the reprogramming efficiency” with NGFP3 secondary MEFs (GFP+ colonies scored on day 21, listed as 5-Aza-deoxycytidine).
Turning to `CC(/C=C/C(=O)NO)=C\[C@@H](C)C(=O)c1ccc(N(C)C)cc1` [TSA, trichostatin A], the “reprogramming efficiency (number of GFP+ colonies)” value in the assay on NGFP3 secondary MEFs (GFP+ colonies scored on day 21) is given as “no obvious effect on the number of colonies”.
In the case of `C[C@@H](N)[C@H]1CC[C@H](C(=O)Nc2ccncc2)CC1` [Y-27632], in the assay on huES cells, the cloning efficiency result is given as “increase cloning efficiency” and the dissociation-induced apoptosis entry is “markedly diminish dissociation-induced apoptosis”.
For the compound `Cc1cc(Nc2ncc3c(n2)N(C)C(=O)N(c2cc(NC(=O)c4cccc(C(F)(F)F)c4)ccc2C)C3)n(C)n1` [pluripotin], in the assay with ES cells, the “self renewal of ES cells” value is reported as “sustains self renewal of ES cells”.
Take `CC/C(=C(\c1ccccc1)c1ccc(OCCN(C)C)cc1)c1ccccc1` [tamoxifen]: the “localisation of SOX2 protein after tamoxifen addition” value in the assay with SOX2-ER fusion construct is given as “translocation of the SOX2 protein from the cytoplasm to the nucleus”.
